Tests used:
LIV21 = test: Nuclear translocation of LIV21 in MCF-7 cells (Western blotting of extracts/fractions, immunocytochemistry); assay type: cell-based, human
Description: The results obtained by flow cytometry led the inventor to study, in parallel, the expression of LIV21 in nuclear extracts prepared after 12 h, 24 h, 48 h and 72 h of TPA treatment (FIG. 16A). […] It lasts until the reinitiation of the cell cycle observed at 72 h.
However, it is interesting to note that the expression of LIV21 already begins from 1 h of treatment in certain cells, since they are not synchronous.
The effect of the selective inhibition of the activity of PKC∈ on the nuclear translocation of LIV21 was studied by immunocytochemistry. These experiments were carried out on nontreated cultures or cultures treated for 12 h with TPA at 25 nM or with the peptide at two different concentrations, 1 and 2 μM (FIG. 20).
(§1) The protein extracts are heated at 80° C. for 5 minutes in a Laemmli buffer (pH 7.4, 0.06 M Tris, 3% SDS, 10% glycerol, 1 nM PMSF, β-mercaptoethanol). The migration is carried out by SDS-PAGE (sodium dodecyl sulfate-polyacrylamide gel electrophoresis). 10 to 20 μg of proteins migrate in a 12% polyacrylamide gel for 1 h under denaturing conditions (migration buffer: 25 mM Tris base, 192 mM glycine, 1% SDS, pH 8.3). The proteins are then transferred onto a nitrocellulose membrane (Schleicher & Schuell) for one hour by liquid transfer, in a transfer membrane (25 mM Tris, 192 mM glycine, 20% methanol, pH 8.3). The membranes, saturated in PBS-0.1% Tween-0.1% Triton X100-5% skimmed milk for one hour, are brought into contact with the primary antibody diluted in PBS-0.1% Tween-0.1% Triton X100-1% milk at ambient temperature with gentle agitation for one hour to two hours. After washing, the peroxidase-coupled secondary antibody is incubated with the membranes for 1 h. Revelation is carried out by means of a chemiluminescence reaction using the ECL kit according to the supplier's protocol (Amersham).

PKC∈ = PKC∈ expression in MCF-7 cells (Western blotting, immunofluorescence); assay type: cell-based, human; details: TPA 25 nM
Description: Western blotting study: Given that the protein sequence of LIV21 has putative PKC phosphorylation sites, including two specific for PKC∈, the inventor tested the variation in the expression of this PKC as a function of the duration of TPA treatment. […] The expression of PKCzeta (PKCζ) is used as an internal control since it is not sensitive to TPA.
as §1, with “Revelation is carried out by means of a chemiluminescence reaction using the ECL kit according to the supplier's protocol (Amersham).” left out

MCF-7 cells [1] = test: FACS analysis of cell cycle phases in TPA-treated MCF-7 cells; assay type: cell-based, human
Description: However, without any further addition of TPA, the number of cells in the S phase increases again so as to return to the initial state at 72 h of treatment. G2/M phase: The number of cells in the G2/M phase increases from the beginning of the treatment, with a maximum observed at 12 hours (FIG. 15B). G0/G1 phase: The number of cells in the G0/G1 phase is at a minimum at 6 hours and at a maximum at 24 hours (FIG. 15C).
A maximum of cells in the S phase are therefore observed in the early periods of the kinetics (0 h to 6 h), a maximum of cells in the G2/M phase is observed at 12 h and, finally, a maximum of cells in the G0/G1 phase is observed at 24 h. Finally, without any further addition of TPA, the cells return to the S phase at 72 h.

MCF-7 cells [2] = test: Cell growth monitoring (counting) and morphology of MCF-7 cultures with or without TPA; assay type: cell-based, human; details: TPA 25 nM
Description: It has been described in the literature that TPA induces the arrest of proliferation and the differentiation of tumor cells of the MCF-7 line. In order to validate the culture conditions, the cell growth was monitored (by counting) beforehand over three days of culture in the presence or absence of TPA at a concentration of 25 nM (FIG. 14).
However, in the period of time over which the cells were studied, the secretory phenotype (appearance of granules and of secretory canaliculi) was not observed.

MCF-7 line = details: literature description; cited from earlier work

Compound | nuclear translocation of LIV21 (immunocytochemistry) (LIV21; peptide 1 μM, 12 h) | nuclear translocation of LIV21 (immunocytochemistry) (LIV21; peptide 2 μM, 12 h, compared with TPA 25 nM) | nuclear translocation of LIV21 (immunocytochemistry) (LIV21; peptide 2 μM, 12 h, compared with TPA 25 nM, listed as PKCε-inhibiting peptide) | LIV21 expression profile in cytoplasmic and nuclear fractions (cell fractionation, Western blot) (LIV21; peptide 2 μM, 12 h, compared with TPA-treated cultures) | PKC∈ localization (immunofluorescence) (PKC∈; 12 h) | PKC∈ expression (Western blotting, total extracts) (PKC∈; as a function of duration of treatment) | colocalization of PML and LIV21 (double labeling) (LIV21; 24 h of TPA treatment (25 nM)) | time of maximum nuclear translocation of LIV21 (immunocytochemistry) (LIV21; TPA 25 nM) [h] | anti-LIV21 immunoreactivity in nuclear extracts (Western blot) (LIV21; TPA 25 nM, 12 h, 24 h, 48 h and 72 h) | time of optimal reduction of the number of cells in the S phase (MCF-7 cells [1]; TPA 25 nM, single addition) [h] | time of maximum number of cells in the G0/G1 phase (MCF-7 cells [1]; TPA treatment) [h] | time of maximum number of cells in the G2/M phase (MCF-7 cells [1]; TPA treatment) [h] | time of minimum number of cells in the G0/G1 phase (MCF-7 cells [1]; TPA treatment) [h] | time at which cells reinitiate the cell cycle (MCF-7 cells [1]; after single addition of TPA) [h] | cell morphology / differentiation (MCF-7 cells [2]) | number of cells in control cultures relative to treated cultures (MCF-7 cells [2]; after 3 days of treatment) | cell proliferation (cell counts) (MCF-7 cells [2]; three days of culture) | proliferation of cells of human mammary tumor lines such as MCF-7 (MCF-7 line)
EAVSLKPT (listed as Homo sapiens) [PKC∈-inhibiting peptide] | absence of nuclear translocation of LIV21 | effect identical to that of TPA | same effectiveness as | same LIV21 expression profile |  |  |  |  |  |  |  |  |  |  |  |  |  | 
CCCCCCCCCCCCCC(=O)O[C@@H]1[C@@H](C)[C@@]2(O)[C@@H](C=C(CO)C[C@]3(O)C(=O)C(C)=C[C@@H]23)[C@H]2C(C)(C)[C@]12OC(C)=O [TPA] |  |  |  |  | disappears from the cytoplasm | decreases from 30 min | colocalized in the nuclei | 12 | maximum anti-LIV21 immunoreactivity was observed from 12 h, was maintained up to 48 h | 12 | 24 | 12 | 6 | 72 | rapidly acquire characteristics of differentiated mammary gland cells | twice as many cells | clearly inhibits proliferation | drastically inhibits the proliferation
